Measured values as given in patent US20250145585A1, “HETEROCYCLIC INHIBITORS OF IGF-1R FOR TREATMENT OF DISEASE” (HORIZON THERAPEUTICS IRELAND DAC, priority 2023, published 2025).

molecular target: T1, IGF-1R (Homo sapiens, UniProt P08069); test: Example B-1: IGF-1R Assay (PC3 cells stimulated with IGF1, AlphaLISA on cell lysates); assay type: cell-based; conditions: compound two hours, IGF1 200 ng/mL for 30 min, read-out: IC50, Biological Activity against IGF-1R (Table B1)
T1 construct: expressed in transfected cells
T1 sequence (P08069 31-1367): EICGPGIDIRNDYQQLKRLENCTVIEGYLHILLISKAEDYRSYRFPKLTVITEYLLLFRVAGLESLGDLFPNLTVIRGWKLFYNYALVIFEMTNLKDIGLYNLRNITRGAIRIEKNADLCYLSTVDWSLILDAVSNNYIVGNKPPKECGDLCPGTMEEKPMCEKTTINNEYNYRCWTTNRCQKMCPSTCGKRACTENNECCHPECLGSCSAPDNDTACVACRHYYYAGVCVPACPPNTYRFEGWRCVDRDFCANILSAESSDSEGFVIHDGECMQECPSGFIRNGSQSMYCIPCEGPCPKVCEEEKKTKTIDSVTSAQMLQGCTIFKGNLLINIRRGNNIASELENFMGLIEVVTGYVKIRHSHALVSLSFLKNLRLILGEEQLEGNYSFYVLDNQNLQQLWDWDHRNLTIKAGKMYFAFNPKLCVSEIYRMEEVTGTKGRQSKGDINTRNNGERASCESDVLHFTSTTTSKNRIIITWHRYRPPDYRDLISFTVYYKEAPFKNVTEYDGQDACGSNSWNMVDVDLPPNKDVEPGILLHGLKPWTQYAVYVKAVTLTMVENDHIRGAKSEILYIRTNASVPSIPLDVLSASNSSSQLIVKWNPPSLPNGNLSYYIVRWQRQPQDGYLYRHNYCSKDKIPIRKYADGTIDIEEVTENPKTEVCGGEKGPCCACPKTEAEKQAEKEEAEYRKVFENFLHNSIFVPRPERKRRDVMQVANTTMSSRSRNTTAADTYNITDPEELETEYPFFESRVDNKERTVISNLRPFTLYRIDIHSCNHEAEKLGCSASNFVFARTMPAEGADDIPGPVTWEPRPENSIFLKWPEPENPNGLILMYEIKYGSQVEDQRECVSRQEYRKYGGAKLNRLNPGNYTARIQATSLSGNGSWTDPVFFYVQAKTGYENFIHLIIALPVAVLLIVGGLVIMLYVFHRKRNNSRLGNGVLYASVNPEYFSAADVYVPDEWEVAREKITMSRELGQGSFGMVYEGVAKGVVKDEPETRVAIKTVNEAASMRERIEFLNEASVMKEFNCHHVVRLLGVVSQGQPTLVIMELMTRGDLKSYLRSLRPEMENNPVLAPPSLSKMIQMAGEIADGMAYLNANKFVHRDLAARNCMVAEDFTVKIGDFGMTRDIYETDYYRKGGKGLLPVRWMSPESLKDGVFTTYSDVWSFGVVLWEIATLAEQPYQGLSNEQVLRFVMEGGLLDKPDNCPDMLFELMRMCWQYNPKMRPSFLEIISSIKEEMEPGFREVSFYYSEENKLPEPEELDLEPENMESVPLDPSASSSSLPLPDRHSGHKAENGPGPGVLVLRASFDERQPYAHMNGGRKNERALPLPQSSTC
Summary of the method: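 IC50 from AlphaLISA read-out of lysed PC3 cells, percent inhibition normalized between vehicle and EC80 controls. Before lysis, cells had 2 h serum-free starvation, 2 h exposure to compound in 3× dilution series, and 30 min IGF1 stimulation at final 200 ng/mL.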

CC1(C)C(=O)N(c2ccc(SC(F)(F)F)cc2)C(=O)N1Cc1ccnc(NC(=O)NC2CCC(F)(F)C2)c1 (centres unmarked) [Compound 374, 1-(3,3-difluorocyclopenty)-3-(4-((5,5-dimethyl-2,4-dioxo-3-(4-((trifluoromethyl)thio)phenyl)imidazolidin-1-yl)methyl)pyridin-2-yl)urea] and CC1(C)C(=O)N(c2ccc(SC(F)(F)F)cc2)C(=O)N1Cc1ccnc(NCC(F)F)c1 [Compound 315, 1-((2-((2,2-difluoroethyl)amino)pyridin-4-yl)methyl)-5,5-dimethyl-3-(4-((trifluoromethyl)thio)phenyl) imidazolidine-2,4-dione] cannot be ordered by IC50: no more than 500 nM for the first, no more than 500 nM for the second.

COC[C@H](C)Nc1cc(CN2C(=O)N(c3ccc(C4(C(F)(F)F)CC4)cc3)C(=O)C2(C)C)ccn1 [Compound 105, (S)-1-((2-((1-methoxypropan-2-yl)amino)pyridin-4-yl)methyl)-5,5-dimethyl-3-(4-(1-(trifluoromethyl)cyclopropyl)phenyl) imidazolidine-2,4-dione] and CC(C)Nc1cc(CN2C(=O)N(c3ccc(C4(C)CCC4)cc3)C(=O)C2(C)C)ccn1 [Compound 101, 1-((2-(isopropylamino)pyridin-4-yl)methyl)-5,5-dimethyl-3-(4-(1-methylcyclobutyl)phenyl)imidazolidine-2,4-dione] cannot be ordered by IC50: no more than 500 nM for the first, no more than 500 nM for the second.

CC1(C)C(=O)N(c2ccc(S(F)(F)(F)(F)F)cc2)C(=O)N1Cc1ccnc(N)c1 [Compound 179, 1-((2-aminopyridin-4-yl)methyl)-5,5-dimethyl-3-(4-(pentafluoro-16-sulfanyl)phenyl)imidazolidine-2,4-dione] and CC1(C)C(=O)N(c2ccc(C#N)cc2)C(=O)N1Cc1ccnc(N)c1 [Compound 80, 4-(3-((2-aminopyridin-4-yl)methyl)-4,4-dimethyl-2,5-dioxoimidazolidin-1-yl)benzonitrile] cannot be ordered by IC50: no more than 500 nM for the first, 500 to 2000 nM for the second.

First: Nc1cc(CN2C(=O)N(c3ccc(SC(F)(F)F)cc3)C(=O)C23CCCC3)ccn1 [Compound 291, ((2-aminopyridin-4-yl)methyl)-3-(4-((trifluoromethyl)thio)phenyl)-1,3-diazaspiro[4.4]nonane-2,4-dione]
Second: Nc1cc(CN2C(=O)N(c3ccc(SC(F)(F)F)cc3)C(=O)[C@@H]2c2ccccc2)ccn1 [Compound 294, (S)-1-((2-aminopyridin-4-yl)methyl)-5-phenyl-3-(4-((trifluoromethyl)thio)phenyl)imidazolidine-2,4-dione]
The IC50 of the first is lower: 500 to 2000 nM for the first, greater than 10000 nM for the second. The first is the more potent here.

Going from CC(C)Nc1cc(CN2C(=O)N(c3ccc(SC(F)(F)F)cc3)C(=O)C2(C)C)c(F)cn1 [Compound 384, 1-((5-fluoro-2-(isopropylamino)pyridin-4-yl)methyl)-5,5-dimethyl-3-(4-((trifluoromethyl)thio)phenyl) imidazolidine-2,4-dione] to CC1(C)Cc2cc(CN3C(=O)N(c4ccc(SC(F)(F)F)cc4)C(=O)C3(C)C)cnc2N1 [Compound 14, 1-((2,2-dimethyl-2,3-dihydro-1H-pyrrolo[2,3-b]pyridin-5-yl)methyl)-5,5-dimethyl-3-(4-((trifluoromethyl)thio)phenyl)imidazolidine-2,4-dione], the IC50 rises from no more than 500 nM to greater than 10000 nM. The first is the more potent here.

CC1(C)C(=O)N(c2ccc(C3(C(F)(F)F)CC3)cc2)C(=O)N1Cc1ccnc2[nH]ccc12 [Compound 7, 1-((1H-pyrrolo[2,3-b]pyridin-4-yl)methyl)-5,5-dimethyl-3-(4-(1-(trifluoromethyl)cyclopropyl)phenyl)imidazolidine-2,4-dione] and CC1(C)C(=O)N(c2ccc(C3(C(F)(F)F)CC3)cc2)C(=O)N1Cc1ccnc2[nH]cc(Br)c12 [Compound 8, 1-((3-bromo-1H-pyrrolo[2,3-b]pyridin-4-yl)methyl)-5,5-dimethyl-3-(4-(1-(trifluoromethyl)cyclopropyl)phenyl)imidazolidine-2,4-dione] cannot be ordered by IC50: no more than 500 nM for the first, no more than 500 nM for the second.

CC(=O)Nc1cc(CN2C(=O)N(c3ccc(SC(F)(F)F)cc3)C(=O)C2(C)C)ncn1 [Compound 365, N-(6-((5,5-dimethyl-2,4-dioxo-3-(4-((trifluoromethyl)thio)phenyl)imidazolidin-1-yl)methyl)pyrimidin-4-yl)acetamide] and CC1(C)C(=O)N(c2ccc(SC(F)(F)F)cc2)C(=O)N1Cc1ccnc(NC(=O)Nc2ccccc2F)c1 [Compound 375, 1-(4-((5,5-dimethyl-2,4-dioxo-3-(4-((trifluoromethyl)thio)phenyl)imidazolidin-1-yl)methyl)pyridin-2-yl)-3-(2-fluorophenyl)urea] cannot be ordered by IC50: no more than 500 nM for the first, no more than 500 nM for the second.

Compared with CC1(C)C(=O)N(c2ccc(SC(F)(F)F)cc2)C(=O)N1Cc1ccnc2[nH]c(C3CC3)cc12 [Compound 15, 1-((2-cyclopropyl-1H-pyrrolo[2,3-b]pyridin-4-yl)methyl)-5,5-dimethyl-3-(4-((trifluoromethyl)thio)phenyl)imidazolidine-2,4-dione], CC1(C)C(=O)N(c2ccc(SC(F)(F)F)cc2)C(=O)N1Cc1ccnc(NC(=O)Nc2ccc(C#N)cc2)c1 [Compound 376, 1-(4-cyanophenyl)-3-(4-((5,5-dimethyl-2,4-dioxo-3-(4-((trifluoromethyl)thio)phenyl)imidazolidin-1-yl)methyl)pyridin-2-yl)urea] is lower in IC50: greater than 10000 nM for the first, no more than 500 nM for the second.

CC(C)(C)c1ccc(N2C(=O)N(Cc3ccnc(NC4CCOCC4)c3)C(C)(C)C2=O)cc1 [Compound 266, 3-(4-(tert-butyl)phenyl)-5,5-dimethyl-1-((2-((tetrahydro-2H-pyran-4-yl)amino)pyridin-4-yl)methyl)imidazolidine-2,4-dione] and CC(C)(C)c1ccc(N2C(=O)N(Cc3ccnc(NC4COC4)c3)C(C)(C)C2=O)cc1 [Compound 275, 3-(4-(tert-butyl)phenyl)-5,5-dimethyl-1-((2-(oxetan-3-ylamino)pyridin-4-yl)methyl)imidazolidine-2,4-dione] cannot be ordered by IC50: no more than 500 nM for the first, no more than 500 nM for the second.

CC(C)(C)c1ccc(N2C(=O)N(Cc3ccnc(NC4(CO)CC4)c3)C(C)(C)C2=O)cc1 [Compound 271, 3-(4-(tert-butyl)phenyl)-1-((2-((1-(hydroxymethyl)cyclopropyl)amino)pyridin-4-yl)methyl)-5,5-dimethylimidazolidine-2,4-dione] and CC1(C)C(=O)N(c2ccc(C3(CO)CC3)cc2)C(=O)N1Cc1ccnc(N)c1 [Compound 100, 1-((2-aminopyridin-4-yl)methyl)-3-(4-(1-(hydroxymethyl)cyclopropyl)phenyl)-5,5-dimethylimidazolidine-2,4-dione] fall in the same range of IC50: 500 to 2000 nM for the first, 500 to 2000 nM for the second.

CC(C)Nc1cc(CN2C(=O)N(c3ccc(C4(C)CC(F)(F)C4)cc3)C(=O)C2(C)C)ccn1 [Compound 116, 3-(4-(3,3-difluoro-1-methylcyclobutyl)phenyl)-1-((2-(isopropylamino)pyridin-4-yl)methyl)-5,5-dimethylimidazolidine-2,4-dione] and CC(C)Nc1cc(CN2C(=O)N(c3ccc([Si](C)(C)C)cc3)C(=O)C2(C)C)ccn1 [Compound 89, 1-((2-(isopropylamino)pyridin-4-yl)methyl)-5,5-dimethyl-3-(4-(trimethylsilyl)phenyl)imidazolidine-2,4-dione] cannot be ordered by IC50: no more than 500 nM for the first, no more than 500 nM for the second.

Compound CC(C)(C)c1ccc(N2C(=O)N(Cc3ccnc4[nH]cc(Cl)c34)C(C)(C)C2=O)cc1 [Compound 6, 3-(4-(tert-butyl)phenyl)-1-((3-chloro-1H-pyrrolo[2,3-b]pyridin-4-yl)methyl)-5,5-dimethylimidazolidine-2,4-dione] has an IC50 of no more than 500 nM.
